Reference: patent publication US20230242585A1, “IMMUNOMODULATORS” (Bristol-Myers Squibb Company, priority 2020, published 2023)
Starred links: 1 amine or outer side, 2 acyl side, 3 side chain; linkers in the order of their positions; H or OH if unused. Positions of bridges follow the written chain, without caps; N, C: chain ends. Non-standard residues stand in square brackets, D forms with d. Residues, ends and D or L forms follow the SMILES beside them. X53 = O=C([C@H](CCNC[C@H](O)[C@@H](O)[C@H](O)C(O)CO[C@H]1O[C@H](CO)[C@H](O)[C@H](O)[C@H]1O)N[*:1])[*:2]; X39 = O=C([C@H](CNC[C@H](O)[C@@H](O)[C@H](O)C(O)CO[C@H]1O[C@H](CO)[C@H](O)[C@H](O)[C@H]1O)N[*:1])[*:2]; X54 = O=C([C@H](CCNC[C@@H](O)C(O)[C@H](O[C@@H]1OC(CO)[C@@H](O)C(O)C1O)C(O)CO)N[*:1])[*:2]; X42 = O=C([C@H](CNC[C@@H](O)C(O)[C@H](O[C@@H]1OC(CO)[C@@H](O)C(O)C1O)C(O)CO)N[*:1])[*:2]; X66 = C[C@H](O)[C@H](O)[C@@H](O)[C@@H](O)CNCC[C@H](N[*:1])C(=O)[*:2]; X52 = C[C@H](O)[C@H](O)[C@@H](O)[C@@H](O)CNC[C@H](N[*:1])C(=O)[*:2]; Trp(1-CH2COOH) = N[C@@H](Cc1cn(CC(=O)O)c2ccccc12)C(=O)O; Hyp = O=C(O)[C@@H]1C[C@@H](O)CN1; NMeNle = CCCC[C@H](NC)C(=O)O; NMeA = CN[C@@H](C)C(=O)O; Dab = NCC[C@H](N)C(=O)O

The molecules below were run against T1, PD-1/PD-L1 (Homo sapiens, UniProt Q9NZQ7) (assay: PD-1/PD-L1 Homogenous Time-Resolved Fluorescence (HTRF) binding assay). Settings: PD-L1-His 10 nM, PD-1-Ig 20 nM.
T1 construct: TVMV protease site (linker) (C); made in house; host or cells: HEK293T cells
Summary of the method: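 Compounds preincubated 15 min with PD-L1-His (residues 18-239, 10 nM) in dPBS with 0.1% BSA, 0.05% Tween-20, then PD-1-Ig (residues 25-167, 20 nM) for 15 min. Eu-cryptate anti-Ig (1 nM) and APC anti-His (20 nM) equilibrated 30 min; 665/620 nm ratio read, IC50 derived.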

T1 sequence (Q9NZQ7 18-239): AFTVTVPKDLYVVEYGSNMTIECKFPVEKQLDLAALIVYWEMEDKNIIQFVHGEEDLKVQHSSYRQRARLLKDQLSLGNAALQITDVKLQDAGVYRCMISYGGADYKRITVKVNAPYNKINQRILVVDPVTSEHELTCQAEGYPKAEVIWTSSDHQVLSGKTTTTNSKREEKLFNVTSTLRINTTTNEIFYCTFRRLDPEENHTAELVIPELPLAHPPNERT

IC50 [nM]	Compound
6.3	CCCC[C@H]1C(=O)N(C)[C@@H](CCCC)C(=O)N[C@@H](CC(C)C)C(=O)N[C@H](C(=O)NCC(N)=O)CSCC(=O)N[C@@H](Cc2ccc(O)cc2)C(=O)N(C)[C@@H](C)C(=O)N[C@@H](CC(N)=O)C(=O)N2CCC[C@H]2C(=O)N[C@@H](CNC[C@@H](O)C(O)[C@H](O[C@@H]2OC(CO)[C@@H](O)C(O)C2O)C(O)CO)C(=O)N[C@@H](CC(C)C)C(=O)N2C[C@H](O)C[C@H]2C(=O)N[C@@H](Cc2c[nH]c3ccccc23)C(=O)N[C@@H](CCNC[C@@H](O)C(O)[C@H](O[C@@H]2OC(CO)[C@@H](O)C(O)C2O)C(O)CO)C(=O)N[C@@H](Cc2cn(CC(=O)O)c3ccccc23)C(=O)N1C (stereo partly shown) [Example 2040] ({CH2CO}-Y[NMeA]NP[X42]L[Hyp]W[X54][Trp(1-CH2COOH)][NMeNle][NMeNle]LCG-NH2; thioether N-14)
7.2	CCCC[C@H]1C(=O)N(C)[C@@H](CCCC)C(=O)N[C@@H](CC(C)C)C(=O)N[C@H](C(=O)NCC(N)=O)CSCC(=O)N[C@@H](Cc2ccc(O)cc2)C(=O)N(C)[C@@H](C)C(=O)N[C@@H](CC(N)=O)C(=O)N2CCC[C@H]2C(=O)N[C@@H](CNC[C@H](O)[C@@H](O)[C@H](O)C(O)CO[C@H]2O[C@H](CO)[C@H](O)[C@H](O)[C@H]2O)C(=O)N[C@@H](CC(C)C)C(=O)N2C[C@H](O)C[C@H]2C(=O)N[C@@H](Cc2c[nH]c3ccccc23)C(=O)N[C@@H](CCNC[C@H](O)[C@@H](O)[C@H](O)C(O)CO[C@H]2O[C@H](CO)[C@H](O)[C@H](O)[C@H]2O)C(=O)N[C@@H](Cc2cn(CC(=O)O)c3ccccc23)C(=O)N1C (stereo partly shown) [Example 2041] ({CH2CO}-Y[NMeA]NP[X39]L[Hyp]W[X53][Trp(1-CH2COOH)][NMeNle][NMeNle]LCG-NH2; thioether N-14)
6.7	CCCC[C@H]1C(=O)N(C)[C@@H](CCCC)C(=O)N[C@@H](CC(C)C)C(=O)N[C@H](C(=O)NCC(N)=O)CSCC(=O)N[C@@H](Cc2ccc(O)cc2)C(=O)N(C)[C@@H](C)C(=O)N[C@@H](CC(N)=O)C(=O)N2CCC[C@H]2C(=O)N[C@@H](CNC[C@H](O)[C@H](O)[C@@H](O)[C@H](C)O)C(=O)N[C@@H](CC(C)C)C(=O)N2C[C@H](O)C[C@H]2C(=O)N[C@@H](Cc2c[nH]c3ccccc23)C(=O)N[C@@H](CCN)C(=O)N[C@@H](Cc2cn(CC(=O)O)c3ccccc23)C(=O)N1C [Example 2042] ({CH2CO}-Y[NMeA]NP[X52]L[Hyp]W[Dab][Trp(1-CH2COOH)][NMeNle][NMeNle]LCG-NH2; thioether N-14)
12	CCCC[C@H]1C(=O)N(C)[C@@H](CCCC)C(=O)N[C@@H](CC(C)C)C(=O)N[C@H](C(=O)NCC(N)=O)CSCC(=O)N[C@@H](Cc2ccc(O)cc2)C(=O)N(C)[C@@H](C)C(=O)N[C@@H](CC(N)=O)C(=O)N2CCC[C@H]2C(=O)N[C@@H](CNC[C@H](O)[C@H](O)[C@@H](O)[C@H](C)O)C(=O)N[C@@H](CC(C)C)C(=O)N2C[C@H](O)C[C@H]2C(=O)N[C@@H](Cc2c[nH]c3ccccc23)C(=O)N[C@@H](CCNC[C@H](O)[C@H](O)[C@@H](O)[C@H](C)O)C(=O)N[C@@H](Cc2cn(CC(=O)O)c3ccccc23)C(=O)N1C [Example 2044] ({CH2CO}-Y[NMeA]NP[X52]L[Hyp]W[X66][Trp(1-CH2COOH)][NMeNle][NMeNle]LCG-NH2; thioether N-14)
